We go through six compounds from patent US8957074B2 (Novartis AG, priority 2010, dated 2015).

For one assay, the target named is CDK1/cyclin B (Homo sapiens (Human), UniProt P06493). As to the kind of experiment: CDK1/cyclin B enzymatic activity assay (IMAP-FP). The following applies: 100 nM Tamra Histone-H1 peptide, 20 μM ATP, 120 min at room temperature, read-out: Biochemical CDK1 enzyme IC50. It counts as biochemical. The source says: CDK1/Cyclin B Enzymatic Activity Assay
A 384-well microtiter IMAP-FP™ (Molecular Devices Trade Mark Technology) endpoint assay was used for CDK1/cyclin B kinase activity measurements. The same assay was used for IC50 determination of small molecule inhibitors.

The target of the next assay is CDK4/cyclin D1 (Homo sapiens (Human), UniProt P11802). As to the kind of experiment: CDK4/cyclin D1 enzymatic activity assay (TR-FRET, phosphorylation of pRb at Ser780). It counts as biochemical. The essentials:
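Phosphorylation at pRb Ser780, detected by TR-FRET, gave IC50s and kinetics. Enzyme: baculovirus/Sf21-expressed human CDK4/cyclin D1. ATP at 3 μM initiated the reaction; EDTA (pH 8.0) stopped it after 60 min at 22° C.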
(In general: In TR-FRET formats the signal depends on donor and acceptor labels being close together.)

Assay [1] relates to phosphorylation of pRb at the Ser780 site in JeKo-1 mantle cell lymphoma cells. The assay is described as follows: CDK4 cellular assay: ELISA of pRb phosphorylation at Ser780 in JeKo-1 cells. It counts as cell-based. The settings on record: Homo sapiens. Background: In an ELISA, binding on a coated surface is turned into a signal by an enzyme label.
Setting [2] is: 0.3 nM CDK4/cyclin D1, 150 nM biotin-pRb (773-924), 3 μM ATP, 60 min at 22° C., read-out: Biochemical CDK4 enzyme IC50.
Setting [3] is: JeKo-1 cells, p-pRb % inhibition adjusted with total pRb levels, read-out: Normalized cellular ppRb inhibition IC50.
Setting [4] is: JeKo-1 cells, p-pRb Ser780 ELISA, non-normalized, read-out: Cellular ppRb inhibition IC50.
The mark [5] stands for this setting: JeKo-1, JeKo-1 cells, p-pRb % inhibition adjusted with total pRb levels, read-out: Normalized cellular ppRb inhibition IC50.
Setting [6] is: JeKo-1, JeKo-1 cells, p-pRb Ser780 ELISA, non-normalized, read-out: Cellular ppRb inhibition IC50.

The structures appear in SMILES notation. pIC50: −log10 of the molar value. Read-outs that look alike come from different tables or passages of the source. Some results are limits rather than exact numbers.

Chain of CDK4/cyclin D1 (P11802 whole entry): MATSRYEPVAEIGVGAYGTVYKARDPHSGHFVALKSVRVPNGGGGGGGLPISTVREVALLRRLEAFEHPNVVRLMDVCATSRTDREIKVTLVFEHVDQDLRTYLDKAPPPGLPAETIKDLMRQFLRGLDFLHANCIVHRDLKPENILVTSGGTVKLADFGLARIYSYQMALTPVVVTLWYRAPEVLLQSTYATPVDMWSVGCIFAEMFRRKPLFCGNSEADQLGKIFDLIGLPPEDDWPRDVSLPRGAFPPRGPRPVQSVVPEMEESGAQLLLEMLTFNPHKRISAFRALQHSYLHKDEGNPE
Chain of CDK4/cyclin D1 (P24385 whole entry partner): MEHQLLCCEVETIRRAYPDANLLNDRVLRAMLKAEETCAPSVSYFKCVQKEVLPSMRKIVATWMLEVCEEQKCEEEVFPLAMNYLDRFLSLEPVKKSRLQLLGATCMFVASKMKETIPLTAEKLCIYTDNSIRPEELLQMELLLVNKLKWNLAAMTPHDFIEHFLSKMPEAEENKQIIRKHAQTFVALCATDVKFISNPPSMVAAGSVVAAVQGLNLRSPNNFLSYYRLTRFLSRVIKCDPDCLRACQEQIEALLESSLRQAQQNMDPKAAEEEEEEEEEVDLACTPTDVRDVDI
Chain of CDK1/cyclin B (P06493 whole entry, species assumed): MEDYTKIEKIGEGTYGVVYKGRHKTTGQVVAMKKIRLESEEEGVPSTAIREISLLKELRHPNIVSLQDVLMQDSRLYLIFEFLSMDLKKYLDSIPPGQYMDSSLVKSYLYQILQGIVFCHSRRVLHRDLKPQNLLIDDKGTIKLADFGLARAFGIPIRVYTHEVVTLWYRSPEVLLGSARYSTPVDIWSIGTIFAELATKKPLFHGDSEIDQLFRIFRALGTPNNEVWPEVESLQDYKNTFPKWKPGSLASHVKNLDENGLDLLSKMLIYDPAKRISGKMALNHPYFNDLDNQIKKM
Chain of CDK1/cyclin B (P14635 whole entry partner, species assumed): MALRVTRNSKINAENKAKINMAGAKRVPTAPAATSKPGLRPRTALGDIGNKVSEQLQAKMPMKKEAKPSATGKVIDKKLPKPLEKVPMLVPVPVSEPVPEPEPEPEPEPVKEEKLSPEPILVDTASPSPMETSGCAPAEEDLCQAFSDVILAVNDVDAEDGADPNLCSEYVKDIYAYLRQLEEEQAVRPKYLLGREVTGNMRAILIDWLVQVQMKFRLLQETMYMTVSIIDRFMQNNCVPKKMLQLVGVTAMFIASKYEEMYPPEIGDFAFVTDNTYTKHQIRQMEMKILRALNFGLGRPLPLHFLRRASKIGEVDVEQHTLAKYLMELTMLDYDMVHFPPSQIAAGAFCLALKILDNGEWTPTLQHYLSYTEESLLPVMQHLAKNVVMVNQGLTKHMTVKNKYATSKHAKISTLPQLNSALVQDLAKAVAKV

Regarding `CN(C)C(=O)c1cc2cnc(Nc3ccc(C(=O)N4CC5CCC(C4)C5N(C)C)cn3)nc2n1C1CCCC1` (stereo not drawn) [Example 34, 7-cyclopentyl-2-(5-(8-(dimethylamino)-3-azabicyclo[3.2.1]octane-3-carbonyl)pyridin-2-ylamino)-N,N-dimethyl-7H-pyrrolo[2,3-d]pyrimidine-6-carboxamide], the pIC50 at CDK1/cyclin B ([…] CDK1/cyclin B) was < 4.82; on CDK4/cyclin D1 (setting [2]) it was 7.66; in assay [1] (setting [3]) it was 6.85; in assay [1] (setting [4]), 7.12.

As to `CN(C)C(=O)c1cc2cnc(Nc3ccc(N4C[C@]5(CCCNC5)OC4=O)cn3)nc2n1C1CCCC1` [Example 110, 7-Cyclopentyl-2-[5-((R)-2-oxo-1-oxa-3,7-diaza-spiro[4.5]dec-3-yl)-pyridin-2-ylamino]-7H-pyrrolo[2,3-d]pyrimidine-6-carboxylic acid dimethylamide], the pIC50 on CDK1/cyclin B ([…] CDK1/cyclin B) was < 4.82; on CDK4/cyclin D1 (setting [2]), 8.10; in assay [1] (setting [3]) it was 7.21; in assay [1] (setting [4]) it was 7.39.

`CN(C)C(=O)c1cc2cnc(Nc3ccc(N4CC5CNCC5C4=O)cn3)nc2n1C1CCCCCC1` (stereo not drawn) [Example 81, 7-Cycloheptyl-2-[5-(1-oxo-hexahydro-pyrrolo[3,4-c]pyrrol-2-yl)-pyridin-2-ylamino]-7H-pyrrolo[2,3-d]pyrimidine-6-carboxylic acid dimethylamide]: the negative logarithm of the IC50 (pIC50) on CDK1/cyclin B (0.25 nM CDK1/cyclin B) is 5.42; at CDK4/cyclin D1, > 8.30; in assay [1] (JeKo-1, read-out: Cellular ppRb inhibition IC50) it was 8.52; in assay [1] (JeKo-1, read-out: Normalized cellular ppRb inhibition IC50), 8.40.

As for `CN(C)C(=O)c1cc2cnc(Nc3ccc(C(=O)N4C[C@@H]5CN[C@@H](C5)C4)cn3)nc2n1C1CCCC1` [Example 10, 7-Cyclopentyl-2-[5-((1S,5S)-3,6-diaza-bicyclo[3.2.1]octane-3-carbonyl)-pyridin-2-ylamino]-7H-pyrrolo[2,3-d]pyrimidine-6-carboxylic acid dimethylamide], the pIC50 on CDK1/cyclin B ([…] CDK1/cyclin B) is 5.38; at CDK4/cyclin D1 (setting [2]), 8.30; in assay [1] (setting [5]), 7.60; in assay [1] (setting [6]), 7.68.

On to `CN(C)C(=O)c1cc2cnc(Nc3ccc(N4C[C@H]5CC[C@@H](CC4=O)N5)cn3)nc2n1-c1ccccc1` [Example 130, 2-[5-((1R,6S)-4-oxo-3,9-diaza-bicyclo[4.2.1]non-3-yl)-pyridin-2-ylamino]-7-phenyl-7H-pyrrolo[2,3-d]pyrimidine-6-carboxylic acid dimethylamide], for which the negative-log IC50 (pIC50) on CDK1/cyclin B ([…] CDK1/cyclin B) is < 4.82; on CDK4/cyclin D1 (setting [2]) it was 8.05; in assay [1] (setting [5]), 7.35 to 7.66; in assay [1] (setting [6]), 7.59 to 7.72.

As for `CN(C)C(=O)c1cc2cnc(Nc3ccc(N4CC5CCC(CC4=O)N5)cn3)nc2n1-c1ccccc1` (stereo not drawn) [Example 128, 2-[5-(4-oxo-3,9-diaza-bicyclo[4.2.1]non-3-yl)-pyridin-2-ylamino]-7-phenyl-7H-pyrrolo[2,3-d]pyrimidine-6-carboxylic acid dimethylamide], the pIC50 is < 4.82 on CDK1/cyclin B ([…] CDK1/cyclin B), 8.05 at CDK4/cyclin D1 (setting [2]), 6.85 in assay [1] (setting [5]) and 7.09 in assay [1] (setting [6]).

By pIC50 is commonly meant the IC50 on a negative log10 scale, so that one unit is a factor of ten.
